Results published in patent US9206156B2, “Substituted indole derivatives” (GRÜNENTHAL GMBH, priority 2008, dated 2015).

Columns and labels:
[1] = biological target: T1, ORL1 receptor (Homo sapiens, UniProt P41146); assay: ORL1 receptor binding assay with 3H-nociceptin/orphanin FQ (WGA-SPA beads); settings: c=1 μM test substance; 0.5 nM 3H-nociceptin/orphanin FQ; membranes of recombinant CHO-ORL1 cells
T1 construct: expressed in transfected cells; host or cells: CHO (recombinant CHO-ORL1 cells), membranes
T1 sequence (P41146 whole entry): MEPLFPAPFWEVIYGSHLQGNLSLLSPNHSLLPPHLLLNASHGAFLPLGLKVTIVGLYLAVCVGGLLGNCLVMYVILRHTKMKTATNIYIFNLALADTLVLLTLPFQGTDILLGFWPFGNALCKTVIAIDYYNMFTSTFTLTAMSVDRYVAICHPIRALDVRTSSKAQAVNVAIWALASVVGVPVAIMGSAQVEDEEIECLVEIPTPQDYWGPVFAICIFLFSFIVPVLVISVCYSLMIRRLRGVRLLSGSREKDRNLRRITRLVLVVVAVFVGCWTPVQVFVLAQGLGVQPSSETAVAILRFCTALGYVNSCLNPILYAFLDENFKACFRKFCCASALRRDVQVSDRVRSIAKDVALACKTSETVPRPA
Method in brief: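 Radioligand displacement on membranes from recombinant CHO-ORL1 cells, 0.5 nM 3H-nociceptin/orphanin FQ, 20 μg membrane protein per batch in 50 mM Hepes pH 7.4, 10 mM MgCl2, 1 mM EDTA. Incubated 1 h at room temperature with WGA-SPA beads, scintillation read. Reported as Ki (nM) or % inhibition at 1 μM.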

[2] = biological target: T2, human μ-opiate receptor (Homo sapiens, UniProt P35372); assay: μ-opiate receptor binding assay with [3H] naloxone (WGA-SPA beads); settings: 1 μmol/l test substance, 1 nmol/l [3H] naloxone, CHO-K1 cell membranes expressing human μ-opiate receptor
T2 construct: purchased NEN, Zaventem, Belgium RB-HOM; host or cells: CHO-K1 cells (membrane preparation)
T2 sequence (P35372 whole entry): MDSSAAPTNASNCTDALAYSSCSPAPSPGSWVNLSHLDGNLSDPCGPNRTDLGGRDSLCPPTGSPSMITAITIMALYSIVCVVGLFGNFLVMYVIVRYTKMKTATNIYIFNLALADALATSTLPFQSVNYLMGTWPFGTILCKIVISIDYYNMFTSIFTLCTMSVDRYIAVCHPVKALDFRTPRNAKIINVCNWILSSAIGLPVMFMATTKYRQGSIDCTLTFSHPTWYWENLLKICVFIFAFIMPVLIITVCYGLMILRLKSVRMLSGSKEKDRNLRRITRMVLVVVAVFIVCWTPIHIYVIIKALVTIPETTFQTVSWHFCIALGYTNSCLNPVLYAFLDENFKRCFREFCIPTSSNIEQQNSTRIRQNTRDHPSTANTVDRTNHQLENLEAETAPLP
Method in brief: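 CHO-K1 membranes expressing human μ-opiate receptor incubated 90 min at room temperature with 1 nmol/l [3H]naloxone and WGA-SPA beads in 50 mmol/l Tris-HCl with 0.05% azide, 0.06% BSA. Non-specific binding with 25 μmol/l naloxone; % inhibition at 1 μmol/l, or IC50 converted to Ki via Cheng-Prusoff.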

Compound | inhibition at 1 µM [1] | inhibition at 1 µM [2] | % Inhibition (ORL1) at 1 μM [1] | % Inhibition (μ) at 1 μM [2] | % Inhibition (μ) at 1 μM ([2]; 1 µM)
CN(CCN1CCC(c2ccccc2)(N(C)C)CC1)Cc1ccc2cc[nH]c2c1 [Example 181, 1-(2-(((1H-indol-6-yl)methyl)(methyl)amino)ethyl)-N,N-dimethyl-4-phenylpiperidin-4-amine] | 96% | 34% |  |  | 
CN(C)C1(c2ccccc2)CCN(C(=O)C2CCCN(Cc3cccc4[nH]ccc34)C2)CC1 (stereo not shown) [Example 161, (1-((1H-indol-4-yl)methyl)piperidin-3-yl)(4-(dimethylamino)-4-phenylpiperidin-1-yl)methanone] | 15% | 66% |  |  | 
CN(CCCN1CCC(c2ccccc2)(N(C)C)CC1)C(=O)CCc1c[nH]c2ccccc12 [Example 61, N-(3-(4-(Dimethylamino)-4-phenylpiperidin-1-yl)propyl)-3-(1H-indol-3-yl)-N-methylpropanamide] | 65% | 89% |  |  | 
CC(C)c1ccc2c(CN(C)CCN3CCC(c4ccccc4)(N(C)C)CC3)c[nH]c2c1 [Example 73, 1-(2-(((6-Isopropyl-1H-indol-3-yl)methyl)(methyl)amino)ethyl)-N,N-dimethyl-4-phenylpiperidin-4-amine] |  |  | 95% | 95% | 
CN(C)C1(c2ccccc2)CCN(C(=O)CCNCc2c[nH]c3ccccc23)CC1 [Example 139, 3-((1H-indol-3-yl)methylamino)-1-(4-(dimethylamino)-4-phenylpiperidin-1-yl)propan-1-one] | 74% | 90% |  |  | 
CN(CCCN1CCC(c2cccs2)(N(C)C)CC1)C(=O)CCc1c[nH]c2ccccc12 [Example 21, N-(3-(4-(Dimethylamino)-4-(thiophen-2-yl)piperidin-1-yl)propyl)-3-(1H-indol-3-yl)-N-methylpropanamide] | 62% | 87% |  |  | 
CN(C)C1(c2ccccc2)CCN(C(=O)C2CCCN(Cc3c[nH]c4ccccc34)C2)CC1 (stereo not shown) [Example 151, (1-((1H-indol-3-yl)methyl)piperidin-3-yl)(4-(dimethylamino)-4-phenylpiperidin-1-yl)methanone] | 52% | 83% |  |  | 
CC(C)C(C(=O)N1CCC(c2ccccc2)(N(C)C)CC1)N(C)Cc1ccc2cc[nH]c2c1 (stereo not shown) [Example 149, 2-(((1H-indol-6-yl)methyl)(methyl)amino)-1-(4-(dimethylamino)-4-phenylpiperidin-1-yl)-3-methylbutan-1-one] | 52% | 54% |  |  | 
CCCCC1(N(C)C)CCN(CCN(C)C(=O)c2cccc3c2ccn3C)CC1 [Example 41, N-(2-(4-Butyl-4-(dimethylamino)piperidin-1-yl)ethyl)-N,1-dimethyl-1H-indole-4-carboxamide] | 17% | 63% |  |  | 
CN(C)C1(c2cccs2)CCN(C(=O)CC(NCc2ccc3cc[nH]c3c2)c2ccccc2)CC1 (stereo not shown) [Example 169, 3-((1H-indol-6-yl)methylamino)-1-(4-(dimethylamino)-4-(thiophen-2-yl)piperidin-1-yl)-3-phenylpropan-1-one] | 54% | 91% |  |  | 
CCCCC1(N(C)C)CCN(CCN(C)Cc2ccc3cc[nH]c3c2)CC1 [Example 144, 1-(2-(((1H-indol-6-yl)methyl)(methy)amino)ethyl)-4-butyl-N,N-dimethylpiperidin-4-amine] |  |  | 39% | 90% | 
CN(C)C1(c2cccs2)CCN(C(=O)CC(NCc2cccc3[nH]ccc23)c2ccccc2)CC1 (stereo not shown) [Example 174, 3-((1H-indol-4-yl)methylamino)-1-(4-(dimethylamino)-4-(thiophen-2-yl)piperidin-1-yl)-3-phenylpropan-1-one] | 68% | 92% |  |  | 
CC(CC(=O)N1CCCC(C(=O)N2CCC(c3ccccc3)(N(C)C)CC2)C1)c1c[nH]c2ccccc12 (stereo not shown) [Example 122, 1-(3-(4-(dimethylamino)-4-phenylpiperidine-1-carbonyl)piperidin-1-yl)-3-(1H-indol-3-yl)butan-1-one] | 43% | 84% |  |  | 
CN(CCCN1CCC(c2cccs2)(N(C)C)CC1)C(=O)c1ccc2cc[nH]c2c1 [Example 17, N-(3-(4-(Dimethylamino)-4-(thiophen-2-yl)piperidin-1-yl)propyl)-N-methyl-1H-indole-6-carboxamide] | 38% | 70% |  |  | 
CN(CCN1CCC(c2ccccc2)(N(C)C)CC1)C(=O)c1ccc2cc[nH]c2c1 [Example 18, N-(2-(4-(Dimethylamino)-4-phenylpiperidin-1-yl)ethyl)-N-methyl-1H-indole-6-carboxamide] | 82% | 95% |  |  | 
CN(CCN1CCC(c2ccccc2)(N2CCCC2)CC1)C(=O)C1CCCc2c1[nH]c1ccc(Cl)cc21 (stereo not shown) [Example 42, 6-Chloro-N-methyl-N-(2-(4-phenyl-4-(pyrrolidin-1-yl)piperidin-1-yl)ethyl)-2,3,4,9-tetrahydro-1H-carbazole-1-carboxamide] | 22% | 28% |  |  | 
CN(C)C1(c2cccs2)CCN(C(=O)CC(NCc2cccc3cc[nH]c23)c2ccccc2)CC1 (stereo not shown) [Example 173, 3-((1H-indol-7-yl)methylamino)-1-(4-(dimethylamino)-4-(thiophen-2-yl)piperidin-1-yl)-3-phenylpropan-1-one] | 74% | 96% |  |  | 
CN(CCN1CCC(c2ccccc2)(N(C)C)CC1)Cc1c[nH]c2ccccc12 [Example 186, 1-(2-(((1H-indol-3-yl)methyl)(methy)amino)ethyl)-N,N-dimethyl-4-phenylpiperidin-4-amine] |  |  | 88% |  | 102%
CN(C)C1(c2cccs2)CCN(C(=O)CNC(=O)C2CCCc3c2[nH]c2ccc(Cl)cc32)CC1 (stereo not shown) [Example 116, 6-chloro-N-(2-(4-(dimethylamino)-4-(thiophen-2-yl)piperidin-1-yl)-2-oxoethyl)-2,3,4,9-tetrahydro-1H-carbazole-1-carboxamide] | 50% | 83% |  |  | 
CC(C)C(CC(=O)N(C)CCN1CCC(c2ccccc2)(N(C)C)CC1)c1c[nH]c2ccccc12 (stereo not shown) [Example 87, N-(2-(4-(dimethylamino)-4-phenylpiperidin-1-yl)ethyl)-3-(1H-indol-3-yl)-N,4-dimethylpentanamide] |  |  | 93% |  | 102%
CN(C)C1(c2cccs2)CCN(CCNCc2c[nH]c3ccccc23)CC1 [Example 179, 1-(2-((1H-indol-3-yl)methylamino)ethyl)-N,N-dimethyl-4-(thiophen-2-yl)piperidin-4-amine] | 97% | 76% |  |  | 
CN(C)C1(c2ccccc2)CCN(C(=O)C2CN(Cc3cccc4[nH]ccc34)c3ccccc32)CC1 (stereo not shown) [Example 175] |  |  | 10% | 70% | 
COc1ccc2c(c1)c(CN(C)CCN1CCC(c3ccccc3)(N(C)C)CC1)c(C)n2Cc1ccccc1 [Example 193, 1-(2-(((1-benzyl-5-methoxy-2-methyl-1H-indol-3-yl)methyl)(methyl)amino)ethyl)-N,N-dimethyl-4-phenylpiperidin-4-amine] | 68% | 82% |  |  | 
CN(C)C1(c2ccccc2)CCN(C(=O)CCNC(=O)CCc2cn(C)c3ccccc23)CC1 [Example 117, N-(3-(4-(dimethylamino)-4-phenylpiperidin-1-yl)-3-oxopropyl)-3-(1-methyl-1H-indol-3-yl)propanamide] | 48% | 79% |  |  | 
CN(CCN1CCC(c2ccccc2)(N(C)C)CC1)Cc1c[nH]c2ccc(Cl)cc12 [Example 182, 1-(2-(((5-chloro-1H-indol-3-yl)methyl)(methy)amino)ethyl)-N,N-dimethyl-4-phenylpiperidin-4-amine] |  |  | 95% |  | 101%
CN(CCN1CCC(c2ccccc2)(N(C)C)CC1)C(=O)C1CCCc2c1[nH]c1ccc(Cl)cc21 (stereo not shown) [Example 127, 6-chloro-N-(2-(4-(dimethylamino)-4-phenylpiperidin-1-yl)ethyl)-N-methyl-2,3,4,9-tetrahydro-1H-carbazole-1-carboxamide] |  | 68% | 39% |  | 
CN(C)C1(c2cccs2)CCN(CCNC(=O)c2ccc3ccn(C)c3c2)CC1 [Example 9, N-(2-(4-(Dimethylamino)-4-(thiophen-2-yl)piperidin-1-yl)ethyl)-1-methyl-1H-indole-6-carboxamide] | 77% | 101% |  |  | 
CC(C)C(CC(=O)N1CCCC(C(=O)N2CCC(c3ccccc3)(N(C)C)CC2)C1)c1c[nH]c2ccccc12 (stereo not shown) [Example 106, 1-(3-(4-(dimethylamino)-4-phenylpiperidine-1-carbonyl)piperidin-1-yl)-3-(1H-indol-3-yl)-4-methylpentan-1-one] | 63% | 92% |  |  | 
CC(C)C(CC(=O)N1CC(C(=O)N2CCC(c3ccccc3)(N(C)C)CC2)c2ccccc21)c1c[nH]c2ccccc12 (stereo not shown) [Example 89, 1-(3-(4-(dimethylamino)-4-phenylpiperidine-1-carbonyl)indolin-1-yl)-3-(1H-indol-3-yl)-4-methylpentan-1-one] | 91% | 94% |  |  | 
